The inhibition is the share of the control response that was lost under treatment. Usually mortality stands for the percentage killed. A word on the IC50: it is the midpoint of a concentration-inhibition curve.

Structures are written as SMILES. Structures can show the parent of a compound that is named as a salt. Where two headings read alike, the source gives them in different places.

We go through 39 compounds from patent US20140350081A1, “INSECT G-COUPLED RECEPTORS USEFUL AS TARGETS FOR INSECTICIDES AND COMPOUNDS AND REAGENTS IDENTIFIED USING THE SAME” (priority 2011, published 2014).

The target of experiment [1] is T1, AaDOP2 (Aedes aegypti, UniProt H6D5H2). In words: LOPAC1280 antagonist screen in HEK-CRELuc-Aadop2 cells. It counts as cell-based. The note with it: for % inhibition of DA activity (Aedes cell-based assay screen): LOPAC1280 screen hits.
For experiment [2], the target named is Isdop2 (Ixodes scapularis, UniProt A0ACM8DGL0). Put plainly: cell-based. The note with it: for inhibition at 10 µM: read-out: % Inhibition (of response to dopamine), Isdop2 screen.
The subject of experiment [3] is Ae. aegypti L3 larvae. Put plainly: whole plant or invertebrate. The note with it: Aedes aegypti.
The target of experiment [4] is T1, AaDOP2. In words: HTRF cAMP accumulation concentration response assay (Cisbio Dynamic 2). It counts as cell-based.
The mark [5] stands for this setting: 10 μM compound, 300 nM dopamine, quadruplicate.
Where [6] appears, read: 10 μM compound, footnote 3 mM dopamine.
The mark [7] stands for this setting: 24 h, read-out: Toxicity to Aedes aegypti larvae (mortality) 24 hours, 400 μM, L3 larvae, three independent experiments.
The mark [8] stands for this setting: 48 h, read-out: Toxicity to Aedes aegypti larvae (mortality) 48 hours, 400 μM, L3 larvae, three independent experiments.
Setting [9] is: 72 h, read-out: Toxicity to Aedes aegypti larvae (mortality) 72 hours, 400 μM, L3 larvae, three independent experiments.
Setting [10] is: AaDOP2 expressing cells in the presence of dopamine, No Inhibition = <10% inhibition at 3 μM test compound.
Where [11] appears, read: AaDOP2 expressing cells in the presence of dopamine, No Inhibition = <10% inhibition at 3 μM test compound, read-out: IC50 ± S.E.M. (nM), HTRF cAMP assay.
The mark [12] stands for this setting: in vitro Concentration Response Curve assay, n = 2, relative to control antagonist Amitriptyline, read-out: Avg IC50.

Isdop2, sequence (A0ACM8DGL0 entry or part of it): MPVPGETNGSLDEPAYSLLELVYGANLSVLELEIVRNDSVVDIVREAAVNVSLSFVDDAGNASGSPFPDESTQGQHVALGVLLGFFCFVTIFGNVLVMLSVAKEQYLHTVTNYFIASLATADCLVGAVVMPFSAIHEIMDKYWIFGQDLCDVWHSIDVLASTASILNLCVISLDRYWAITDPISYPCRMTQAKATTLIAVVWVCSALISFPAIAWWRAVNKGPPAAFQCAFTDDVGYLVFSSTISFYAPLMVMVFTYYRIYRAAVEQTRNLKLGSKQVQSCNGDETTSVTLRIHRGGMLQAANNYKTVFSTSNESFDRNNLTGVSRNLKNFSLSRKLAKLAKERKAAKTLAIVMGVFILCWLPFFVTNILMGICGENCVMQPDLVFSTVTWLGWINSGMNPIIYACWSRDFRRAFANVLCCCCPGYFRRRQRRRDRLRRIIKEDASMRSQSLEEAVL
T1 sequence (H6D5H2 entry or part of it): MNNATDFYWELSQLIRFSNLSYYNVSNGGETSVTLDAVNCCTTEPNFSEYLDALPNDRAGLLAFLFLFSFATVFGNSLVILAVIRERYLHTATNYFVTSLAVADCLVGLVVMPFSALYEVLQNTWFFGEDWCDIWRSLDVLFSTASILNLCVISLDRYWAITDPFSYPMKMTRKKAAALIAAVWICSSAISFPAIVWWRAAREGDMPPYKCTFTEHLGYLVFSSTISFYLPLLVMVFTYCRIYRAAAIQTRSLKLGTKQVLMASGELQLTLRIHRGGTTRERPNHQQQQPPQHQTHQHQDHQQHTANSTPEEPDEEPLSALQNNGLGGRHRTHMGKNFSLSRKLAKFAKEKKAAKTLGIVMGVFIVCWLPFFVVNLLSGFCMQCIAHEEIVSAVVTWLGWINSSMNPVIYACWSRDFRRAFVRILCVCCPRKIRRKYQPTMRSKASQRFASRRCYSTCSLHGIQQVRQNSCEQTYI

In the case of `CC(CN(C)C)CN1c2ccccc2CCc2ccccc21` (racemic) [Trimipramine, (±)-3-(10,11-dihydro-5H-dibenzo[b,f]azepin-5-yl)-N,N,2-trimethylpropan-1-], the “% of the SCH23390 effect” value in experiment [1] (setting [5]) is recorded as 87%. Also, the “% inhibition of DA activity (Aedes cell-based assay screen)” value (shortened to “% inhibition of DA activity”) in experiment [1] stood at 87%. Besides, the inhibition at 10 µM in experiment [2] was determined as 86%.
Take `CN1C2CCC1CC(OC(c1ccccc1)c1ccc(Cl)cc1)C2.Cl` (stereo not drawn) [4′-Chloro-3-alpha-(diphenylmethoxy) tropane hydrochloride]: the “% of the SCH23390 effect” value in experiment [1] (setting [5]) was determined as 85%. Further, the “% Inhibition (of response to dopamine), Isdop2 screen” value (“% Inhibition … Isdop2 screen” for short) in experiment [2] (setting [6]) was 80%.
Consider `CC[C@@]1(O)C(=O)OCc2c1cc1n(c2=O)Cc2cc3ccccc3nc2-1` [(S)-(+)-Camptothecin], for which the “% of the SCH23390 effect” value in experiment [1] (setting [5]) worked out at 93%. In experiment [2] (setting [6]), the “% Inhibition … Isdop2 screen” value came to 97%.
Turning to `CNCC[C@@H](Oc1ccccc1C)c1ccccc1` [Atomoxetine], the results for the mortality at 400 µM in experiment [3] (setting [7]), in experiment [3] (setting [8]) and in experiment [3] (setting [9]) were 20%, 30% and 30%, respectively. Besides, the “IC50 ± S.E.M. (nM), HTRF cAMP assay” value in experiment [4] (setting [10]) is “No Inhibition^a”.
Consider `CNCCCN1c2ccccc2CCc2ccccc21` [Desipramine], for which the mortality at 400 µM in experiment [3] (setting [7]) was 30%; in experiment [3] (setting [8]) it was 40%; in experiment [3] (setting [9]), 43%. For the same compound, the IC50 in experiment [4] (setting [11]) stood at 3300 nM.
Regarding `Cc1nc2sccn2c(=O)c1CCN1CCC(=C(c2ccccc2)c2ccc(F)cc2)CC1` [Diacylglycerol kinase inhibitor I], in experiment [1] (setting [5]), the “% of the SCH23390 effect” value was 90%. Further, in experiment [2], the “% Inhibition … Isdop2 screen” value came out at 69%.
Consider `CC[C@H]1CN2CCc3cc(OC)c(OC)cc3[C@@H]2C[C@@H]1C[C@H]1NCCc2cc(OC)c(OC)cc21` [Emetine dihydrochloride hydrate], for which, in experiment [1], the “% of the SCH23390 effect” value was determined as 86%. Further, the inhibition at 10 µM in experiment [2] worked out at 100%.
With `COCCCC/C(=N\OCCN)c1ccc(C(F)(F)F)cc1` [Fluvoxamine], the results for the mortality at 400 µM in experiment [3] (setting [7]), in experiment [3] (setting [8]) and in experiment [3] (setting [9]) were 27%, 33% and 43%, respectively. In addition, the “IC50 ± S.E.M. (nM), HTRF cAMP assay” value in experiment [4] (setting [10]) is on record as “No Inhibition^a”.
As for `CC(=O)[C@]1(O)Cc2c(O)c3c(c(O)c2[C@@H](O[C@H]2C[C@H](N)[C@H](O)[C@H](C)O2)C1)C(=O)c1ccccc1C3=O` [Idarubicin], the “% of the SCH23390 effect” value in experiment [1] is given as 83%. Moreover, the inhibition at 10 µM in experiment [2] stood at 97%.
Take `O=C1Cc2c([nH]c3ccc(Br)cc23)-c2ccccc2N1` [Kenpaullone]: the “% of the SCH23390 effect” value in experiment [1] (setting [5]) came out at 83%. In addition, the inhibition at 10 µM in experiment [2] was 68%.
Consider `CN1CCc2ccccc2Cc2[nH]c3ccccc3c2CC1` [LE 300, 7-Methyl-6,7,8,9,14,15-hexahydro-5H-benz[d]indolo[2,3-g]azecine], for which, in experiment [1], the “% of the SCH23390 effect” value amounted to 99% and the “% inhibition of DA activity” value amounted to 99%. In addition, in experiment [2], the inhibition at 10 µM amounted to 100%.
`CCOC(=O)N1CCC(=C2c3ccc(Cl)cc3CCc3cccnc32)CC1` [Loratidine]: the half-maximal inhibitory concentration (IC50) in experiment [4] (setting [11]) is 18000 nM.
On to `O=C1c2c(O)ccc(O)c2C(=O)c2c(NCCNCCO)ccc(NCCNCCO)c21` [Mitoxantrone], for which the “% of the SCH23390 effect” value in experiment [1] (setting [5]) turned out to be 83%.
`O=C1C(SCCO)=C(SCCO)C(=O)c2ccccc21` [NSC 95397]: the “% of the SCH23390 effect” value in experiment [1] (setting [5]) is given as 83%. In addition, the “% Inhibition … Isdop2 screen” value in experiment [2] came to 93%.
In turn, `CCc1nn(CCCN2CCN(c3cccc(Cl)c3)CC2)c(=O)n1CCOc1ccccc1` [Nefazodone HCl, 2-[3-[4-(3-chlorophenyl)-1-piperazinyl]propyl]-5-ethyl-2,4-dihydro-4-(2-phenoxyethyl)-3H-1,2,4-triazol-3-one hydrochloride] gave an IC50 in experiment [4] of 4880 nM.
As to `O=C(Nc1ccc([N+](=O)[O-])cc1Cl)c1cc(Cl)ccc1O` [Niclosamide], the “% of the SCH23390 effect” value in experiment [1] (setting [5]) turned out to be 95%. In experiment [2], the inhibition at 10 µM came to 100%.
For the compound `CCCN1C[C@H](CSC)C[C@@H]2c3cccc4[nH]cc(c34)C[C@H]21` [Pergolide Mesylate, 8β-[(Methylthio)methyl]-6-propylergoline methanesulfonate salt], the IC50 in experiment [4] (setting [12]) was found to be 704 nM.
With `O=C1[C@H]2CCCC[C@H]2C(=O)N1CCCCN1CCN(c2nsc3ccccc23)CC1` [Peropirone Hcl, (3aR,7aS)-2-{4-[4-(1,2-benzisothiazol-3-yl)piperazin-1-yl]butyl}hexahydro-1H-isoindole-1,3(2H)-dione], the IC50 in experiment [4] (setting [12]) was 186 nM.
As for `Cc1ccc(N(CC2=NCCN2)c2cccc(O)c2)cc1` [Phentolamine HCl, 2-[N-(3-Hydroxyphenyl)-p-toluidinomethyl]-2-imidazolidine hydrochloride], the IC50 in experiment [4] (setting [12]) was found to be 9030 nM.
As for `CCCCCCCCCCCCCC(=O)O[C@@H]1[C@@H](C)[C@@]2(O)[C@@H](C=C(CO)C[C@]3(O)C(=O)C(C)=C[C@@H]23)[C@@H]2C(C)(C)[C@]12OC(C)=O` [Phorbol 12-myristate 13-acetate], the “% of the SCH23390 effect” value in experiment [1] is listed as 88%. In addition, the “% Inhibition … Isdop2 screen” value in experiment [2] stood at 75%.
As to `Oc1cc(O)cc(/C=C/c2ccc(O)c(O)c2)c1` [Piceatannol], the “% of the SCH23390 effect” value in experiment [1] (setting [5]) is recorded as 98%. The inhibition at 10 µM in experiment [2] is 100%.
Turning to `Cc1nc2ccccn2c(=O)c1CCN1CCC(C(=O)c2ccc(F)cc2)CC1` [Pirenperone, 3-[2-[4-(p-fluorobenzoyl)piperidino]ethyl]-2-methyl-4h-pyrido[1,2-a]pyrimidin-4-one], the “% of the SCH23390 effect” value in experiment [1] (setting [5]) is given as 90%. Besides, in experiment [1], the “% inhibition of DA activity” value was determined as 90%. Moreover, the inhibition at 10 µM in experiment [2] was 87%.
In the case of `CCOC(=O)c1c(C)n(-c2ccccc2)c2cc(Br)c(OC)cc12` [ST002262, ethyl 6-bromo-5-methoxy-2-methyl-1-phenylindole-3-carboxylate], the IC50 in experiment [4] (setting [12]) came out at 4860 nM.
As for `CC(C)(O)C#Cc1ccc2c3c(cccc13)C(=O)OC2=O` [ST010134, 6-(3-hydroxy-3-methyl-but-1-ynyl)-benzo(de)isochromene-1,3-dione], in experiment [4] (setting [12]), the IC50 is 952 nM.
Take `Cc1ccccc1Nc1nc(Nc2ccccc2C)c2ccccc2n1` [ST027415, (2-methylphenyl){2-[(2-methylphenyl)amino]quinazolin-4-yl}amine]: the IC50 in experiment [4] (setting [12]) came out at 8860 nM.
`CCC(CC)c1nc(Nc2ccc(C(=O)OC)cc2)c2ccccc2n1` [ST029812, methyl 4-{[2-(ethylpropyl)quinazolin-4-yl]amino}benzoate]: the IC50 in experiment [4] (setting [12]) worked out at 8930 nM.
Turning to `CCC(CC)c1nc(Nc2ccc(C)c(Cl)c2)c2ccccc2n1` [ST029892, (3-chloro-4-methylphenyl)[2-(ethylpropyl)quinazolin-4-yl]amine], the IC50 in experiment [4] (setting [12]) stood at 4510 nM.
Still for that read-out and setting: the result for `O=[N+]([O-])C1=Cc2ccccc2OC1c1ccc2c(c1)OCO2` (stereo not shown) [ST038696, 5-(3-nitro-2H-chromen-2-yl)-2H-benzo[d]1,3-dioxolane] reads 5510 nM; that for `N=C1SC(=Cc2cc3c(cc2Br)OCO3)C(=O)N1c1ccc(OC(F)(F)F)cc1` [ST052085, 5-[(6-bromo(2H-benzo[d]1,3-dioxolen-5-yl))methylene]-2-imino-3-[4-(trifluoromethoxy)phenyl]-1,3-thiazolidin-4-one], 74200 nM; that for `CC1CCC(C(C)C)C(OC(=O)C(=O)c2ccccc2)C1` (stereo not shown) [ST070482, 5-methyl-2-(methylethyl)cyclohexyl 2-oxo-2-phenylacetate], 32400 nM.
For the compound `CCOC(=O)C1=C(N)Oc2c(oc(CO)cc2=O)C1c1cc([N+](=O)[O-])ccc1Cl` (stereo not shown) [ST071653, ethyl 2-amino-4-(2-chloro-5-nitrophenyl)-6-(hydroxymethyl)-8-oxo-4H-pyrano[3,2-b]pyran-3-carboxylate], the IC50 in experiment [4] (setting [12]) came out at 1650 nM.
Same read-out and setting: the result for `COc1ccc(C(=O)Nc2nc(-c3ccc4c(c3)OCCO4)cs2)cc1OC` [ST075014, N-(4-(2H,3H-benzo[3,4-e]1,4-dioxin-6-yl)(1,3-thiazol-2-yl))(3,4-dimethoxyphenyl)carboxamide] reads 8310 nM; that for `COc1ccc2[nH]cc(CCNC(=O)C(=O)c3c(-c4ccccc4)n(C)c4ccccc34)c2c1` [ST077642, N-[2-(5-methoxyindol-3-yl)ethyl]-2-(1-methyl-2-phenylindol-3-yl)-2-oxoacetamide], 17600 nM; that for `CN1CCc2c(c3ccccc3n2Cc2ccccc2)C1` [ST088437, 2-methyl-5-benzyl-1,2,3,4-tetrahydropyridino[4,3-b]indole], 1970 nM.
In experiment [4], `CC(=O)c1ccc2c(c1)OCO2` [ST092311, 5-acetyl-2H-benzo[d]1,3-dioxolene] had an IC50 of 5820 nM.
Consider `c1ccc(CCNc2nc(N3CCNCC3)nc3ccccc23)cc1` [ST095663, (phenylethyl)(2-piperazinylquinazolin-4-yl)amine], for which the 50% inhibitory concentration (IC50) in experiment [4] (setting [12]) worked out at 4840 nM.
`CN(C)CCOc1ccc(/C(=C(/CCCl)c2ccccc2)c2ccccc2)cc1` [Toremifene citrate salt, (Z)-2-(4-(4-Chloro-1,2-diphenyl-1-butenyl)phenoxy)-N,N-dimethylethanamine] had an IC50 in experiment [4] of 44900 nM.
With `COc1ccc(C(CN(C)C)C2(O)CCCCC2)cc1` (stereo not shown) [Venlafaxine], the mortality at 400 µM in experiment [3] (setting [7]) was 3%; in experiment [3] (setting [8]), 7%; in experiment [3] (setting [9]), 13%. Moreover, the “IC50 ± S.E.M. (nM), HTRF cAMP assay” value in experiment [4] (setting [10]) is “No Inhibition^a”.
As for `CC1(C)CCC2=C(O1)c1ccccc1C(=O)C2=O` [beta-Lapachone], in experiment [1] (setting [5]), the “% of the SCH23390 effect” value came to 86%.
